{"source": "patent US11975005B2", "about": "“Treatment of respiratory diseases” (TIANLI BIOTECH PTY LTD, priority 2015, dated 2024)", "key": {"RSV [1]": {"test_system": "RSV", "experiment": "5 day model of RSV infection, treatments from day 1", "format": "in vivo, mice"}, "RSV [2]": {"test_system": "RSV", "experiment": "RSV infection in Balb/C mice, PF670462 on days 3, 4 and 5", "format": "in vivo"}, "[3]": {"test_system": "human parenchymal fibroblasts", "experiment": "TGFβ-induced fibrogenic gene expression in human parenchymal lung fibroblasts", "format": "cell-based", "from_the_text": "Experiments described in the current Example and Example 14 involved culture of human parenchymal fibroblasts, measurement of their proliferation and gene expression response, the methods for which are detailed in Schuliga et al 2009 (Am J Respir Cell Mol Biol. 2009; 41(6):731-41).\nThe investigation of fibrogenesis may be undertaken in in vivo models typically using rodents. However, differences in behavior of cell types and species differences in protein structures and signaling systems create some limitations in the predictive value of such models. Additional valuable evidence of impacts on fibrogenesis can be obtained from the use of human fibroblasts isolated from the parenchyma and maintained in cell culture (Schuliga et al. (2009) Am J Respir Cell Mol Biol 41(6):731-741; Westergren-Thorsson et al. (2004) Int J Biochem Cell Biol 36(8): 1573-1584).\nThe data shown is for parenchymal lung fibroblasts from both patients with the pulmonary fibrotic disease, idiopathic pulmonary fibrosis (IPF) and those derived samples of non-IPF donors. […] Colla is a subunit of the fibrillar type collagen that is deposited in excess in the extracellular matrix in fibrotic lesions.\nFIG. 15B was performed in the same manner as for FIG. 15A except that in this experiment the fibroblasts are cultured as a suspended spheroid, rather than in 2D monolayer culture."}, "GC responsive genes": {"test_system": "GC responsive genes", "experiment": "Topical (intranasal) PF670462 in naïve Balb/c mice, lung gene expression", "format": "in vivo", "conditions": "naïve Balb/C female mice; PF670462 0.6 μg intranasal 4 and 24 hours before post mortem"}, "GRE-regulated genes": {"test_system": "GRE-regulated genes", "experiment": "PF670462 aerosol exposure of Balb/C mice, lung gene expression", "format": "in vivo", "conditions": "Balb/C female mice; aerosol 0.03-10 mg/ml, 7 min, 24 and 4 hours before harvest", "from_the_text": "[…] and GILZ are known to exert anti-inflammatory actions in by suppression of the master pro-inflammatory transcription factor, NFκB."}, "bleomycin-treated mice": {"test_system": "bleomycin-treated mice", "from_the_text": "Bleomycin is commonly used in mice to model pulmonary fibrosis. This anti-cancer agent is known to induce pulmonary fibrosis in a subset of patients. […] Eventually the intensity of the fibrosis declines but never fully resolves. Early treatment in the model (during the first 3 days) may influence the outcome via anti-inflammatory effects (Limjunyawong et al. (2014) Physiol Rep. 2(2): e00249). Delayed treatment is used to specifically examine impact on the fibrogenic process."}, "[4]": {"test_system": "primary human airway epithelial cells", "experiment": "Dex-induced gene expression in ALI-differentiated primary human airway epithelial cells", "format": "cell-based", "conditions": "3 and 10 μM", "from_the_text": "The methods used in Examples 1 to 5 (and 10, 19, 20) are similar to those reported in Salem et al 2012 (Br J Pharmacol. 166:2036-2048) and again in Keenan et al 2014 (Respiratory Research, e15:55) in which methods for cell culture, GRE assays and gene expression measurements are fully described. Additional methods for growth of respiratory syncytial virus (RSV) and rhinovirus (RV) are described in Collins et al 2007 (Respir Physiol Neurobiol. 2007 Jun. 15; 156(3):345-52.) and by Xatzipsalti and papdopoulos, 2007 (Contrib Microbiol. 2007; 14:33-41).\nThese studies were undertaken in ALI-differentiated culture of primary human airway epithelial cells."}, "RSV [5]": {"test_system": "RSV", "experiment": "HDM allergen challenge with RSV infection in mice", "format": "in vivo", "conditions": "HDM allergen challenged mice infected with 2 million RSV virions 3 days prior to post mortem", "procedure": "The conduct of the house dust mite allergy model with RSV complication was conducted as described herein and using the approaches described in Fuchs and Braun 2008 (Curr Drug Targets. 2008 June; 9(6):495-502)."}, "ALK5": {"target": "T1, ALK5 (Homo sapiens, UniProt P36897)", "T1 sequence (P36897 34-503)": "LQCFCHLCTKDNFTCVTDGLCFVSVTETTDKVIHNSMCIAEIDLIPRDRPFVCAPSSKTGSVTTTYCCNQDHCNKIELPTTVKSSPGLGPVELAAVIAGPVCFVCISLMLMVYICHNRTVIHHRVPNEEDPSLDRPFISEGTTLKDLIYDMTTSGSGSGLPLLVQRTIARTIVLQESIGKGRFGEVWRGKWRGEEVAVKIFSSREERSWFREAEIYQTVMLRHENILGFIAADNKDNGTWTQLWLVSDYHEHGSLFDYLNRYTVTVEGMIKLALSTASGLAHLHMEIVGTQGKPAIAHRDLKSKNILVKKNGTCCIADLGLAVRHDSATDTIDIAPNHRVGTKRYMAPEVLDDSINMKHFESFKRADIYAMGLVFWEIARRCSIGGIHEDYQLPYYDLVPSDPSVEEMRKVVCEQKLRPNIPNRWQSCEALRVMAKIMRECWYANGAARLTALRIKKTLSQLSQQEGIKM", "experiment": "ALK5 inhibition (IC50)", "format": "biochemical"}, "[6]": {"conditions": "Mock-treated mice, PF670462 ip, RT-qPCR"}, "[7]": {"conditions": "female Balb/C mice inoculated with RSV, Dex 1 mg/kg (i.p.)/day from day 1, PF670462 30 mg/kg days 3, 4 and 5"}, "[8]": {"conditions": "3-day bleomycin, female mice, PF670462 30 mg/kg ip"}, "[9]": {"conditions": "14 days bleomycin, PF670462 30 mg/kg/day delayed until day 3"}, "[10]": {"conditions": "21 day bleomycin, female mice, PF670462 daily from day 8 until day 21"}, "[11]": {"conditions": "21 day bleomycin, female mice, PF670462 day 8 to 21"}}, "data": [{"smiles": "Nc1nccc(-c2c(-c3ccc(F)cc3)ncn2C2CCCCC2)n1", "note": "[PF670462]", "values": [{"measurement": "Levels of IFN β", "setting": "RSV [1]", "value": "enhanced"}, {"measurement": "Levels of IFN λ 2", "setting": "RSV [1]", "value": "enhanced"}, {"measurement": "Levels of IFN λ 3", "setting": "RSV [1]", "value": "enhanced"}, {"measurement": "TNFα expression in BAL cells when added to Dex treatment", "setting": "RSV [1]", "value": "further effect"}, {"measurement": "accumulation of inflammatory cells in the BAL fluid", "setting": "RSV [1]; administered from day 1", "value": "reduced"}, {"measurement": "TNFα expression levels in BAL cells", "setting": "RSV [1]; agent alone", "value": "directly suppresses"}, {"measurement": "expression of CXCL5", "setting": "RSV [2]; FIG. 8B, during RSV infection", "value": "no effect alone"}, {"measurement": "expression of KC", "setting": "RSV [2]; FIG. 8B, during RSV infection", "value": "no effect alone"}, {"measurement": "expression of TNFα", "setting": "RSV [2]; FIG. 8B, during RSV infection", "value": "no effect alone"}, {"measurement": "IFN expression (IFNα, IFNβ and IFNγ)", "setting": "RSV [2]; FIG. 8C, RSV treated mice, bronchoalveolar lavage cells and lung tissue, PF670462 given with Dex", "value": "prevented"}, {"measurement": "expression of GILZ in lung tissue", "setting": "RSV [2]; [6]", "value": "directly stimulates"}, {"measurement": "expression of MKP1 in lung tissue", "setting": "RSV [2]; [6]", "value": "neither Dex nor PF670462 alone increased expression"}, {"measurement": "expression of ZBTB16 in lung tissue", "setting": "RSV [2]; [6]", "value": "directly stimulates"}, {"measurement": "bronchoalveolar lavage fluid (BALF) cellular content", "setting": "RSV [2]; [7]", "value": "no effect"}, {"measurement": "bronchoalveolar lavage fluid (BALF) protein content", "setting": "RSV [2]; [7]", "value": "no effect"}, {"measurement": "TGFβ induction of Col1a (collagen 1A) expression", "setting": "[3]; 2D monolayer fibroblasts from IPF and non-IPF donors, TGFβ 24 hour, 3 μM", "value": "significantly suppressed"}, {"measurement": "TGFβ-induced collagen 1A expression in IPF fibroblasts cultured as suspended spheroid", "setting": "[3]; FIG. 15B, 3 μM", "value": "inhibits"}, {"measurement": "TGFβ-induced collagen 1A increase in non-IPF derived cultures as suspended spheroid", "setting": "[3]; FIG. 15B, 3 μM", "value": "not signficantly affected"}, {"measurement": "fibrogenic actions of TGFβ (FIGS. 15A-C, collagen 1A and CTGF)", "setting": "[3]; IPF or non-IPF donors, 2D or 3D", "value": "inhibited"}, {"measurement": "effect on the GC responsive genes in lung tissue", "setting": "GC responsive genes", "value": "direct stimulatory effect"}, {"measurement": "lung expression of GILZ", "setting": "GRE-regulated genes", "value": "dose-related increase"}, {"measurement": "lung expression of ZBTB116", "setting": "GRE-regulated genes", "value": "dose-related increase"}, {"measurement": "Bleomycin induction of CTGF in lung tissue", "setting": "bleomycin-treated mice; [8]", "value": "significantly reduced"}, {"measurement": "Bleomycin induction of Col1a in lung tissue", "setting": "bleomycin-treated mice; [8]", "value": "significantly reduced"}, {"measurement": "Bleomycin induction of PAI-1 in lung tissue", "setting": "bleomycin-treated mice; [8]", "value": "significantly reduced"}, {"measurement": "Bleomycin induction of TIMP1 in lung tissue", "setting": "bleomycin-treated mice; [8]", "value": "significantly reduced"}, {"measurement": "BAL protein levels", "setting": "bleomycin-treated mice; 3-day bleomycin, female mice, PF670462 30 mg/kg ip once daily", "value": "significantly reduced"}, {"measurement": "BAL cells (increase by bleomycin)", "setting": "bleomycin-treated mice; 3-day bleomycin, male mice", "value": "but not in PF670462- or Dex-treated mice"}, {"measurement": "Col1A expression increased by bleomycin, lung tissue", "setting": "bleomycin-treated mice; 3-day bleomycin, male mice", "value": "reduced"}, {"measurement": "Col3 expression increased by bleomycin, lung tissue", "setting": "bleomycin-treated mice; 3-day bleomycin, male mice", "value": "reduced"}, {"measurement": "IL-6 increases in response to bleomycin, lung tissue", "setting": "bleomycin-treated mice; 3-day bleomycin, male mice", "value": "reduced"}, {"measurement": "TIMP1 expression increased by bleomycin, lung tissue", "setting": "bleomycin-treated mice; 3-day bleomycin, male mice", "value": "reduced"}, {"measurement": "fibrogenesis / efficacy in the bleomycin model", "setting": "bleomycin-treated mice; 4 independent studies, 3 to 21 days, male and female mice, PF670462 30 mg/kg/day, ip", "value": "able to reduce fibrogenesis"}, {"measurement": "accumulation of cells on the BAL fluid", "setting": "bleomycin-treated mice; [9]", "value": "significantly reduced"}, {"measurement": "wet weight of the lung", "setting": "bleomycin-treated mice; [9]", "value": "significantly reduced"}, {"measurement": "accumulation of cells in the BAL", "setting": "bleomycin-treated mice; [10]", "value": "significantly reduced"}, {"measurement": "accumulation of protein in the BAL", "setting": "bleomycin-treated mice; [10]", "value": "significantly reduced"}, {"measurement": "increase in lung wet weight", "setting": "bleomycin-treated mice; [10]", "value": "significantly reduced"}, {"measurement": "expression of CTGF in the lung tissue", "setting": "bleomycin-treated mice; [11]", "value": "significantly reduced"}, {"measurement": "expression of interleukin-6 (IL-6) in the lung tissue", "setting": "bleomycin-treated mice; [11]", "value": "significantly reduced"}, {"measurement": "expression of plasminogen activation inhibitor-1 (PAI-1) in the lung tissue", "setting": "bleomycin-treated mice; [11]", "value": "significantly reduced"}, {"measurement": "expression of glucocorticoid regulated gene GILZ in lung", "setting": "bleomycin-treated mice; 21 day experiment, equally in saline and bleomycin-treated mice", "value": "induced"}, {"measurement": "TGFβ suppression of (Dex 30 nM)-induced expression of SCNNIA", "setting": "[4]", "value": "prevented"}, {"measurement": "TGFβ suppression of (Dex 30 nM)-induced expression of ZBTB16", "setting": "[4]", "value": "prevented"}, {"measurement": "BAL cell number", "setting": "RSV [5]", "value": "not significantly reduced"}, {"measurement": "IC50", "setting": "ALK5", "value": 1160, "unit": "nM"}]}]}
